Measurements: ChEMBL document CHEMBL3885881, “DrugMatrix”

Species: Rattus norvegicus
Test: DrugMatrix - Regimen: Daily Repeat
Format: toxicity, organism-based, Sprague-Dawley
Parameters: regimen Daily Repeat, gender Male, age 6-8 weeks
Conditions: in vivo, po, route oral GAVAGE, vehicle .5 % CMC; for TOTAL PROTEIN / ALANINE AMINOTRANSFERASE / ALBUMIN / ALKALINE PHOSPHATASE / ASPARTATE AMINOTRANSFERASE / BLOOD UREA NITROGEN / CARBON DIOXIDE / CHLORIDE / CHOLESTEROL / CREATINE PHOSPHOKINASE / CREATININE / GLUCOSE / LACTATE DEHYDROGENASE / LIPASE / POTASSIUM / SODIUM / TOTAL BILIRUBIN: tissue Plasma; for ABSOLUTE BASOPHIL / ABSOLUTE EOSINOPHIL / ABSOLUTE LYMPHOCYTE / ABSOLUTE MONOCYTE / ABSOLUTE SEGMENTED NEUTROPHIL / BASOPHIL / EOSINOPHIL / ERYTHROCYTE COUNT / HEMATOCRIT / HEMOGLOBIN / LEUKOCYTE COUNT / LYMPHOCYTE / MEAN CORPUSCULAR HEMOGLOBIN / MEAN CORPUSCULAR HEMOGLOBIN CONCENTRATION / MEAN CORPUSCULAR VOLUME / MONOCYTE / NEUTROPHIL / NUCLEATED RED BLOOD CELLS / PLATELET COUNT: tissue Blood
[1] = 150 mg/kg, 120 h, dose level Low, time 5 day
[2] = 2000 mg/kg, 72 h, dose level High, time 3 day
[3] = 2000 mg/kg, 120 h, dose level High, time 5 day

SMILES: C[C@@H]1CC[C@H]2[C@@H](C)C(=O)O[C@@H]3O[C@@]4(C)CC[C@@H]1[C@]32OO4 [ARTEMISININ]
- TOTAL PROTEIN (150 mg/kg, 72 h, dose level Low, time 3 day): 6.7 G/DL
- ABSOLUTE BASOPHIL [1]: 0 CELLS/uL
- ABSOLUTE EOSINOPHIL [1]: 0 CELLS/uL
- ABSOLUTE LYMPHOCYTE [1]: 11615.67 CELLS/uL
- ABSOLUTE MONOCYTE [1]: 298.33 CELLS/uL
- ABSOLUTE SEGMENTED NEUTROPHIL [1]: 986 CELLS/uL
- BASOPHIL [1]: 0%
- EOSINOPHIL [1]: 0%
- ERYTHROCYTE COUNT [1]: 5.22 x10E6/uL
- HEMATOCRIT [1]: 33.07%
- HEMOGLOBIN [1]: 12.77 G/DL
- LEUKOCYTE COUNT [1]: 12.9 x10E3/uL
- LYMPHOCYTE [1]: 90%
- MEAN CORPUSCULAR HEMOGLOBIN [1]: 24.43 pg
- MEAN CORPUSCULAR HEMOGLOBIN CONCENTRATION [1]: 38.63 G/DL
- MEAN CORPUSCULAR VOLUME [1]: 63.33 fL
- MONOCYTE [1]: 2.33%
- NEUTROPHIL [1]: 7.67%
- NUCLEATED RED BLOOD CELLS [1]: 0 /100WBC
- PLATELET COUNT [1]: 1315 x10E3/uL
- ALANINE AMINOTRANSFERASE [1]: 48.67 u/L
- ALBUMIN [1]: 3.93 G/DL
- ALKALINE PHOSPHATASE [1]: 408.33 u/L
- ASPARTATE AMINOTRANSFERASE [1]: 87.67 u/L
- BLOOD UREA NITROGEN [1]: 18 mg/dL
- CARBON DIOXIDE [1]: 27 mmol/L
- CHLORIDE [1]: 101 MEQ/L
- CHOLESTEROL [1]: 71.67 mg/dL
- CREATINE PHOSPHOKINASE [1]: 464 u/L
- CREATININE [1]: 0.19 mg/dL
- GLUCOSE [1]: 139.33 mg/dL
- LACTATE DEHYDROGENASE [1]: 476 u/L
- LIPASE [1]: 10 u/L
- POTASSIUM [1]: 6.65 MEQ/L
- SODIUM [1]: 141.93 MEQ/L
- TOTAL BILIRUBIN [1]: 0.2 mg/dL
- TOTAL PROTEIN [1]: 5.93 G/DL
- ABSOLUTE BASOPHIL [2]: 0 CELLS/uL
- ABSOLUTE EOSINOPHIL [2]: 274 CELLS/uL
- ABSOLUTE LYMPHOCYTE [2]: 15228 CELLS/uL
- ABSOLUTE MONOCYTE [2]: 318.67 CELLS/uL
- BASOPHIL [2]: 0%
- EOSINOPHIL [2]: 1.67%
- ERYTHROCYTE COUNT [2]: 5.42 x10E6/uL
- HEMATOCRIT [2]: 33.43%
- HEMOGLOBIN [2]: 13.03 G/DL
- LEUKOCYTE COUNT [2]: 16.97 x10E3/uL
- LYMPHOCYTE [2]: 89%
- MEAN CORPUSCULAR HEMOGLOBIN [2]: 24.07 pg
- MEAN CORPUSCULAR HEMOGLOBIN CONCENTRATION [2]: 39 G/DL
- MEAN CORPUSCULAR VOLUME [2]: 61.67 fL
- MONOCYTE [2]: 2%
- NEUTROPHIL [2]: 7.33%
- NUCLEATED RED BLOOD CELLS [2]: 0 /100WBC
- PLATELET COUNT [2]: 1460 x10E3/uL
- ALANINE AMINOTRANSFERASE [2]: 59.67 u/L
- ALBUMIN [2]: 4 G/DL
- ALKALINE PHOSPHATASE [2]: 390 u/L
- ASPARTATE AMINOTRANSFERASE [2]: 112.33 u/L
- BLOOD UREA NITROGEN [2]: 19.67 mg/dL
- CARBON DIOXIDE [2]: 23.67 mmol/L
- CHLORIDE [2]: 101.67 MEQ/L
- CHOLESTEROL [2]: 97.67 mg/dL
- CREATINE PHOSPHOKINASE [2]: 581.33 u/L
- CREATININE [2]: 0.25 mg/dL
- GLUCOSE [2]: 144.33 mg/dL
- LACTATE DEHYDROGENASE [2]: 387.67 u/L
- LIPASE [2]: 12.33 u/L
- POTASSIUM [2]: 6.36 MEQ/L
- SODIUM [2]: 142.67 MEQ/L
- TOTAL BILIRUBIN [2]: 0.2 mg/dL
- TOTAL PROTEIN [2]: 6 G/DL
- ABSOLUTE BASOPHIL [3]: 0 CELLS/uL
- ABSOLUTE EOSINOPHIL [3]: 156.67 CELLS/uL
- ABSOLUTE LYMPHOCYTE [3]: 13145.33 CELLS/uL
- ABSOLUTE MONOCYTE [3]: 96 CELLS/uL
- ABSOLUTE SEGMENTED NEUTROPHIL [3]: 868.67 CELLS/uL
- BASOPHIL [3]: 0%
- EOSINOPHIL [3]: 1%
- ERYTHROCYTE COUNT [3]: 5.52 x10E6/uL
- HEMATOCRIT [3]: 33.57%
- HEMOGLOBIN [3]: 13.27 G/DL
- LEUKOCYTE COUNT [3]: 14.27 x10E3/uL
- LYMPHOCYTE [3]: 92%
- MEAN CORPUSCULAR HEMOGLOBIN [3]: 24.07 pg
- MEAN CORPUSCULAR HEMOGLOBIN CONCENTRATION [3]: 39.53 G/DL
- MEAN CORPUSCULAR VOLUME [3]: 60.87 fL
- MONOCYTE [3]: 0.67%
- NEUTROPHIL [3]: 6.33%
- NUCLEATED RED BLOOD CELLS [3]: 0.33 /100WBC
- PLATELET COUNT [3]: 1230 x10E3/uL
- ALANINE AMINOTRANSFERASE [3]: 52.67 u/L
- ALBUMIN [3]: 4.1 G/DL
- ALKALINE PHOSPHATASE [3]: 299.67 u/L
- ASPARTATE AMINOTRANSFERASE [3]: 83.33 u/L
- BLOOD UREA NITROGEN [3]: 19.33 mg/dL
- CARBON DIOXIDE [3]: 28.67 mmol/L
- CHLORIDE [3]: 104 MEQ/L
- CHOLESTEROL [3]: 75.33 mg/dL
- CREATINE PHOSPHOKINASE [3]: 308.33 u/L
- CREATININE [3]: 0.23 mg/dL
- GLUCOSE [3]: 133 mg/dL
- LACTATE DEHYDROGENASE [3]: 153.67 u/L
- LIPASE [3]: 10.33 u/L
- POTASSIUM [3]: 6.54 MEQ/L
- SODIUM [3]: 147.4 MEQ/L
- TOTAL BILIRUBIN [3]: 0.17 mg/dL
- TOTAL PROTEIN [3]: 6.1 G/DL
